Columns and labels:
[1] = system: infant brain tissue microstructure; experiment: Diffusion Tensor Imaging (FA, MD) of newborn brain vs HMO concentration in mother's milk at 1-month, voxel-wise multiple linear regression; assay type: in vivo, human; conditions: for association of exposure with FA values / association of exposure with MD values: milk concentration at 1-month, total sample N=20, FDR-corrected
Excerpt: (§1) Twenty mother-infant pairs were recruited from maternity clinics in Los Angeles County as part of a larger cohort study, and inclusion criteria has been previously described. Briefly, mothers were included if they were ≥18 years old at delivery, had given birth to a full-term singleton newborn, were breastfeeding, and were enrolled within 1 month from delivery. […] The Institutional Review Board of Children's Hospital Los Angeles approved all procedures. Participants provided written informed consent prior to data collection.
(§2) Mother-infant pairs were assessed at 1-month postpartum. Historical health-related information was collected. Mothers pumped a full expression of breast milk that was analyzed for individual HMO concentrations. Infants underwent magnetic resonance imaging (MRI) scanning at approximately 1-month postpartum to assess brain tissue microstructure and regional cerebral blood flow (rCBF).
(§3) Breast milk was collected and analyzed following standard procedures. Mothers were asked to avoid eating and drinking for 1-hour and feeding or pumping breast milk for 1.5-hours before collection. Mothers were encouraged to pump the entire contents of a single breast expression to ensure collection of fore, mid, and hind milk to standardize milk collection as much as possible. Aliquots were stored at −80° C. until HMO characterization at the University of California San Diego. Raffinose was added to each sample as an internal standard for absolute quantification. HMOs were isolated with high-throughput solid-phase extraction, fluorescently labeled, and measured using HPLC. Nineteen HMOs were quantified based on standard retention times and mass spectrometric analysis, which accounted for >90% of total HMO composition. The initial focus, however, was on the most abundant fucosylated and sialylated HMOs reported to influence brain development in animals and infants: 2′FL, 3FL, 3′SL, and 6′SL. Secretor status was defined by the presence or near absence of HMOs 2′FL or lacto-N-fucopentaose I.
(§4) MRI data were collected on a 3 Tesla Philips Achieva MRI scanner equipped with a 32-channel receive-only head coil. All data were acquired without sedation or contrast agent. Mothers and staff lulled infants to sleep with feeding and swaddling. Scans were visually monitored and repeated for any visible motion. Detailed image quality was assessed during preprocessing within 48 hours of scan acquisition.
Diffusion Tensor Imaging (DTI), which measures the diffusion of water as influenced by characteristics of brain tissue microstructure: The template brain was selected using a 2-step procedure to find the brain that was morphologically representative of all brains in our sample, as described in FIG. 1. Quality assurance procedures were instituted to exclude datasets with excessive motion. The diffusion tensor (D) was estimated at each voxel of the pre-processed DTI data in DSI Studio (RRID:SCR_009557) and computed the scalar indices fractional anisotropy (FA), mean diffusivity (MD), axial diffusivity (AD), and radial diffusivity (RD). These maps were edited to remove nonbrain tissue and then were threshed to remove background noise. Edited MD map was used to mask out nonbrain tissue in the FA, AD, and RD maps. The edited maps for each infant were coregistered using a rigid body transformation (3 translations and 3 rotations) to the infant's T1-weighted (T1w) anatomical image, which were in turn used as an intermediary source to coregister the maps for each infant to the final template brain. The FA, AD, MD, and RD maps were then smoothed using a Gaussian kernel with FWHM=4 mm.
Descriptive statistics are presented as mean±standard deviation (SD) for continuous variables and as frequency (percentage) for categorical variables. Normal distribution and homogeneity of variances were confirmed by Shapiro-Wilks W and Levene's tests. Values >3 SD from the mean were identified as outliers. […]

[2] = system: infant regional cerebral blood flow (rCBF); experiment: Arterial Spin Labeling (rCBF) of newborn brain vs HMO concentration in mother's milk at 1-month, voxel-wise multiple linear regression; assay type: in vivo, human; conditions: for association of exposure with rCBF: milk concentration at 1-month, total sample N=20, FDR-corrected; for B, association of exposure with rCBF: white matter
Excerpt: as §1, §2, §3, §4
Arterial Spin Labeling (ASL), which quantifies rCBF, a surrogate measure of cellular metabolism: The rCBF brain images and the Mo_wM image to the first rCBF image for each participant were aligned in native imaging space to correct for head motion. Images with >0.5 mm inter-frame motion were excluded from further processing. […] An in-house software was used to construct for each infant a voxel-wise map of rCBF from the ASL time series and Mo_wm image: 1) pair-wise subtracted the control images from the labeled images; 2) Perfusion-weighted images were calculated by pair-wise subtraction of the control and labeled images, followed by averaging across the imaging time series. The perfusion map (rCBF) was calculated using a single compartment model. A linear transformation with 6 degrees of freedom was used to coregister the quantitative rCBF maps for each infant to their T1-weighted anatomical images, which were in turn used as an intermediary source to coregister the rCBF images for each infant to the final brain template. […]

piglets = conditions: cited from earlier work; for learning and memory tasks compared to controls: piglets fed the substance; for cognitive performance: piglets, feeding

CC(=O)N[C@H]1[C@H]([C@H](O)[C@H](O)CO)O[C@@](O[C@H]2[C@@H](O)[C@@H](CO)O[C@@H](O[C@H]3[C@H](O)[C@@H](O)C(O)O[C@@H]3CO)[C@@H]2O)(C(=O)O)C[C@@H]1O (stereo partly shown) [3′SL, 3′-sialyllactose]
B, association of exposure with MD values ([1]; left posterior corona radiata, pCR): −0.10 | association of exposure with FA values [1]: increased FA values | association of exposure with MD values [1]: reduced MD values | B, association of exposure with FA values ([1]; right DLPFC): 0.03 | B, association of exposure with FA values ([1]; right aCR): 0.04 | association of exposure with rCBF [2]: increased rCBF | B, association of exposure with rCBF ([2]; CC): 0.06 | B, association of exposure with rCBF ([2]; IC): 0.04 | B, association of exposure with rCBF ([2]; aCR): 0.07 | learning and memory tasks compared to controls (piglets): performed better on learning and memory tasks | cognitive performance (piglets): improved cognitive performance

CC(=O)N[C@H]1[C@H]([C@H](O)[C@H](O)CO)O[C@@](OC[C@H]2O[C@@H](O[C@H]3[C@H](O)[C@@H](O)[C@H](O)O[C@@H]3CO)[C@H](O)[C@@H](O)[C@H]2O)(C(=O)O)C[C@@H]1O [6′SL, 6′-sialyllactose, reference compound]
association of exposure with FA values [1]: not significantly associated | association of exposure with MD values [1]: not significantly associated | association of exposure with rCBF [2]: not significantly associated | learning and memory tasks compared to controls (piglets): performed better on learning and memory tasks | cognitive performance (piglets): improved cognitive performance
